Entries after “also recorded” stand apart in the source; their conditions may differ.
Tested on: adult cardiomyocytes isolated from septic mice
Experiment: Seahorse oxygen consumption rate in cardiomyocytes isolated from septic mice
Format: in vivo, mouse
Experimental: Mice were either sham treated or subjected to cecal ligation puncture followed by SDG treatment. The oxygen consumption rate (OCR) was measured in a seahorse assay.
Adult mouse cardiomyocytes isolation—Adult mouse cardiomyocytes (ACMs) were isolated from ventricles of C57BL/6 mice 12 hours post-sham surgery, CLP surgery or combined performance of CLP and treatment with LGM2605 at 6 hours post-surgery. Hearts from heparinized mice (90 USP; ip) were cannulated through the aorta. Hearts were perfused with perfusion buffer (120.4 mMNaCl, 14.7 mM KCL, 0.6 mM NaH2PO4, 0.6 mM KH2PO4, 1.2 mM MgSO4, 10 mM Hepes, 4.6 mM NaHCO3, 30 mMtaurine, 10 mM BDM, 5.5 mM glucose; pH 7.4) for 3 min followed by digestion with perfusion buffer containing 19250 units Collagenese type II (Worthington), 5-6 mg trypsin and 0.02 mM CaCl2 for 7 min. Ventricles were gently teared into small pieces, perfusion buffer containing 5 mg/ml BSA and 0.125 mM CaCl2 was added and filtered with 100 μm nylon. The filtrate was pelleted by gravity for 5 min, centrifuged for 30 sec at 700 rpm and the pellet resuspended in perfusion buffer containing 5 mg/ml BSA and 0.225 mM CaCl2. The cells were pelleted by gravity for 10 min, centrifuged for 30 sec at 700 rpm and the pellet resuspended in perfusion buffer containing 5 mg/ml BSA and 0.525 mM CaCl2.
Seahorse analysis—Isolated primary ACMs were counted with Hematocytometer. Dead cells were detected with Trypan Blue Dye staining. Cells were platted (3000 cells per well) in XF96 Seahorse® plates pre-coated with laminin with 20 μg/ml laminin (Invitrogen, 23017). In order to assess oxygen consumption rates (OCR) for fatty acid oxidation (FAO) recordings, cells were incubated in substrate limited medium (DMEM containing 10 mM Glucose, 1.025 mM CaCl2, 0.5 mM carnitine, pH=7.4) and assayed with fatty acid oxidation medium as per manufacturer's protocol. Before starting the assay, 1 mM palmitate conjugated with BSA was added in each well. Drugs used for maximal response during fatty acid oxidation were: Oligomycin (3 μM) (Sigma, 04875) which blocks complex V, FCCP (2 μM) (Sigma, C2920) that leads to the collapse of the proton gradient, and Rotenone/Antimycin A (0.5 μM) (Sigma, A8674)/(Sigma, R8875) where rotenone blocks complex I and antimycin A blocks complex III. The pre-hydrated with XF assay calibrant, XF cartridges were filled with the drugs and the cartridge was calibrated for 30 minutes in Seahorse Analyzer. All experiments were performed at 37° C. Calculations were made as described in the Seahorse manual and XF Seahorse Mito Stress Test kit user guide. Briefly, basal respiration was calculated with subtraction of non-mitochondrial respiration rate from the last measurement prior to first injection. Maximal respiration was calculated by subtraction of the non-mitochondrial respiration measurement from maximum measurement after FCCP injection. ATP synthesis-related OCR was obtained indirectly by measuring ATP-linked respiration in the presence of complex V inhibitor (Oligomycin). The decrease of oxygen consumption rate representing the portion of basal respiration that was used to drive ATP synthesis was calculated with subtraction of the minimum measurement after Oligomycin injection from the last measurement prior to Oligomycin injection. Spare Respiratory Capacity was equal to (maximum respiration)−(basal respiration).

[1] = CLP + LGM2605 (6 hrs post-CLP), cardiomyocytes 12 hrs after surgery

COc1cc(C[C@@H](CO[C@@H]2O[C@H](CO)[C@@H](O)[C@H](O)[C@H]2O)[C@H](CO[C@@H]2O[C@H](CO)[C@@H](O)[C@H](O)[C@H]2O)Cc2ccc(O)c(OC)c2)ccc1O [LGM2605, secoisolariciresinol diglucoside]
basal respiration and oxygen consumption rate associated with ATP synthesis [1]: increased basal respiration levels (FIG. 18B) and oxygen consumption rate associated with ATP synthesis (FIG. 18C), compared to both CLP and sham mice | maximal respiration and respiratory spare capacity [1]: markedly elevated by LGM2605 treatment | maximal respiration, ATP production, non-mitochondrial oxygen consumption (CLP + SDG relative to levels observed after CLP): statistically significant increase in maximal respiration, ATP production, and non-mitochondrial oxygen consumption relative to levels observed after CLP | basal respiration, maximal respiration, ATP production, non-mitochondrial oxygen consumption (CLP + SDG relative to the untreated levels): statistically significant increase in basal respiration, maximal respiration, ATP production, and non-mitochondrial oxygen consumption relative to the untreated levels | oxygen consumption rate (OCR) (CLP followed by SDG treatment vs CLP and sham, listed as SDG): more than compensated for that decrease; also recorded: increased oxygen consumption rate (OCR) compared to CLP alone and sham operated mice | proton leakage (sham, CLP, CLP + SDG): no statistically significant changes in proton leakage were observed

— US20210128596A1, “COMPOSITIONS AND METHODS FOR TREATING SEPTIC CARDIOMYOPATHY” (UNIVERSITY OF PENNSYLVANIA, priority 2017, published 2021)
